The results in this text go back to patent US9394268B2, “(E)-1-(5-methoxy-2,2-dimethyl-2H-chromen-8-yl)-3-(4-methoxyphenyl)prop-2-en-1-one and analogs thereof, as well as preparation method and use thereof” (Sichuan University, priority 2012, dated 2016).

Common to all, as to assay type: cell-based
One assay relates to SW620. The experiment in a line: Cell proliferative assay (MTT), SW620. The note with it: Homo sapiens, SW-620, 72 h incubation, read-out: IC50s SW620. How it is done:
(§1) The synthesized compounds were evaluated for their cytotoxin activity against suspended tumor cells. These cells were seeded on 96-well plates and incubated for 24 h. Selected compounds were added at various doses and incubated for 72 h, MTT was then added, and the absorbance was measured at a wavelength of 590 nm. IC50 values are expressed as the mean±SEM from the dose-response curves of at least three independent experiments.

In the next assay the test system is HCT116. The experiment in a line: Cell proliferative assay (MTT), HCT116. The note with it: Homo sapiens, HCT-116, 72 h incubation, read-out: IC50s HCT116. Here is the method: as §1
A further assay concerns HT29. Nature of the assay: Cell proliferative assay (MTT), HT29. As to conditions: Homo sapiens, HT-29, 72 h incubation, read-out: IC50s HT29. How it is done:
as §1

The subject of the next assay is HepG2. Nature of the assay: Cell proliferative assay (MTT), HepG2. As to conditions: Homo sapiens, 72 h incubation, read-out: IC50s HepG2. How it is done: as §1
The next assay has as its system K562. The experiment in a line: Cell proliferative assay (MTT), K562. The note with it: Homo sapiens, 72 h incubation, read-out: IC50s K562. Here is the method:
as §1

The next assay has as its system LO2. The experiment in a line: Cell proliferative assay (MTT), LO2. As to conditions: Homo sapiens, L02, 72 h incubation, read-out: IC50s LO2. Here is the method: as §1
The next assay has as its system A549. The experiment in a line: Cell proliferative assay (MTT), A549. As to conditions: Homo sapiens, 72 h incubation, read-out: IC50s A549. How it is done: as §1
A further assay relates to SMMC-7221. The experiment in a line: Cell proliferative assay (MTT), SMMC-7221. The note with it: 72 h incubation, read-out: IC50s SMMC-7221. How it is done:
as §1

The test system of the next assay is A375. Nature of the assay: Cell proliferative assay (MTT), A375. The note with it: Homo sapiens, A-375, 72 h incubation, read-out: IC50s A375. Here is the method:
as §1

A value given as a limit tells only on which side of the number the result lay.

`COc1cccc(/C=C/C(=O)c2ccc(OC)c3c2OC(C)(C)C=C3)c1` [SKLBC-2, (E)-1-(5-methoxy-2,2-dimethyl-2H-chromen-8-yl)-3-(3-methoxyphenyl)prop-2-en-1-one]: the IC50 with SW620, in the assay with HCT116, with HT29, in the assay with HepG2 and in the assay on K562 was greater than 10 µM in each case.

`COc1ccc(C(=O)/C=C/c2cc(OC)c(OC)c(OC)c2)c2c1C=CC(C)(C)O2` [SKLBC-3, (E)-1-(5-methoxy-2,2-dimethyl-2H-chromen-8-yl)-3-(3,4,5-trimethoxyphenyl)prop-2-en-1-one]: the IC50 in the assay on SW620 was 9.15 µM; with HCT116, 7.65 µM; in the assay with HT29 it was greater than 10 µM; in the assay with HepG2, greater than 10 µM; with K562 it was greater than 10 µM.

On to `COc1cc(OC)c(OC)cc1/C=C/C(=O)c1ccc(OC)c2c1OC(C)(C)C=C2` [SKLBC-5, (E)-1-(5-methoxy-2,2-dimethyl-2H-chromen-8-yl)-3-(2,4,5-trimethoxyphenyl)prop-2-en-1-one], for which the IC50 in the assay with SW620, with HCT116, in the assay on HT29, with HepG2 and in the assay on K562 was greater than 10 µM throughout.

Consider `COc1ccc(C(=O)/C=C/c2ccc(F)cc2)c2c1C=CC(C)(C)O2` [SKLBC-6, (E)-3-(4-fluorophenyl)-1-(5-methoxy-2,2-dimethyl-2H-chromen-8-yl)prop-2-en-1-one], for which the IC50 with SW620, in the assay with HCT116, in the assay on HT29, in the assay on HepG2 and in the assay on K562 was greater than 10 µM each time.

As for `COc1ccc(C(=O)/C=C/c2cccc(F)c2)c2c1C=CC(C)(C)O2` [SKLBC-7, (E)-3-(3-fluorophenyl)-1-(5-methoxy-2,2-dimethyl-2H-chromen-8-yl)prop-2-en-1-one], the IC50 in the assay with SW620 was greater than 10 µM; in the assay on HCT116, 1.92 µM; in the assay with HT29, greater than 10 µM; in the assay with HepG2, greater than 10 µM; with K562, greater than 10 µM.

For `COc1ccc(C(=O)/C=C/c2ccc(Br)cc2)c2c1C=CC(C)(C)O2` [SKLBC-8, (E)-3-(4-bromophenyl)-1-(5-methoxy-2,2-dimethyl-2H-chromen-8-yl)prop-2-en-1-one], the IC50 in the assay with SW620 was greater than 10 µM; with HCT116 it was 5.82 µM; in the assay on HT29, greater than 10 µM; in the assay on HepG2, greater than 10 µM; in the assay with K562 it was greater than 10 µM.

As to `COc1ccc(C(=O)/C=C/c2ccc(-c3ccccc3)cc2)c2c1C=CC(C)(C)O2` [SKLBC-11, (E)-3-([1,1′-biphenyl]-4-yl)-1-(5-methoxy-2,2-dimethyl-2H-chromen-8-yl)prop-2-en-1-one], the IC50 in the assay with SW620, with HCT116, in the assay with HT29, in the assay with HepG2 and in the assay on K562 was greater than 10 µM in each case.

As to `COc1ccc(C(=O)/C=C/c2ccc(N(c3ccccc3)c3ccccc3)cc2)c2c1C=CC(C)(C)O2` [SKLBC-13, (E)-3-(4-(diphenylamino)phenyl)-1-(5-methoxy-2,2-dimethyl-2H-chromen-8-yl)prop-2-en-1-one], the IC50 with SW620 is greater than 10 µM; in the assay on HCT116 it was 4.53 µM; in the assay with HT29 it was greater than 10 µM; in the assay on HepG2, greater than 10 µM; with K562 it was greater than 10 µM.

Take `COc1ccc(C(=O)/C=C/c2ccc(-n3ccnc3)cc2)c2c1C=CC(C)(C)O2` [SKLBC-15, (E)-3-(4-(1H-imidazol-1-yl)phenyl)-1-(5-methoxy-2,2-dimethyl-2H-chromen-8-yl)prop-2-en-1-one]: the IC50 in the assay on SW620 is greater than 10 µM; with HCT116, 8.05 µM; in the assay with HT29 it was 6.6 µM; in the assay with HepG2, greater than 10 µM; in the assay with K562, greater than 10 µM.

On to `COc1ccc(C(=O)/C=C/c2ccc(C(F)(F)F)cc2)c2c1C=CC(C)(C)O2` [SKLBC-19, (E)-1-(5-methoxy-2,2-dimethyl-2H-chromen-8-yl)-3-(4-(trifluoromethyl)phenyl)prop-2-en-1-one], for which the IC50 in the assay on SW620, in the assay with HCT116, in the assay with HT29, with HepG2 and in the assay with K562 was greater than 10 µM each time.

Regarding `COc1ccc(/C=C/C(=O)c2ccc(OC)c3c2OC(C)(C)C=C3)cc1NC(C)=O` [SKLBC-92, (E)-N-(2-methoxy-5-(3-(5-methoxy-2,2-dimethyl-2H-chromen-8-yl)-3-oxoprop-1-en-1-yl)phenyl)acetamide], the IC50 in the assay with LO2 is greater than 10 µM; in the assay on A549 it was 5 µM; in the assay on SMMC-7221, 2.24 µM; with HepG2, 2.85 µM; with K562, 3.5 µM; with A375 it was 2.15 µM.

For `C=CC(=O)Nc1cc(/C=C/C(=O)c2ccc(OC)c3c2OC(C)(C)C=C3)ccc1OC` [SKLBC-94, (E)-N-(2-methoxy-5-(3-(5-methoxy-2,2-dimethyl-2H-chromen-8-yl)-3-oxoprop-1-en-1-yl)phenyl)acrylamide], the IC50 is greater than 20 µM in the assay with LO2; greater than 10 µM in the assay with A549; greater than 10 µM in the assay on SMMC-7221; greater than 10 µM in the assay with HepG2; greater than 10 µM with K562; greater than 10 µM in the assay on A375.

In the case of `CCCCC(=O)Nc1cc(/C=C/C(=O)c2ccc(OC)c3c2OC(C)(C)C=C3)ccc1OC` [SKLBC-95, (E)-N-(2-methoxy-5-(3-(5-methoxy-2,2-dimethyl-2H-chromen-8-yl)-3-oxoprop-1-en-1-yl)phenyl)pentanamide], the IC50 is greater than 20 µM in the assay on LO2; greater than 10 µM in the assay on A549; greater than 10 µM with SMMC-7221; greater than 10 µM with HepG2; greater than 10 µM in the assay with K562; greater than 10 µM in the assay with A375.

As for `COc1ccc(/C=C/C(=O)c2ccc(OC)c3c2OC(C)(C)C=C3)cc1NC(=O)C(C)C` [SKLBC-96, (E)-N-(2-methoxy-5-(3-(5-methoxy-2,2-dimethyl-2H-chromen-8-yl)-3-oxoprop-1-en-1-yl)phenyl)isobutyramide], the IC50 in the assay on LO2 was greater than 20 µM; in the assay with A549, greater than 10 µM; in the assay with SMMC-7221, greater than 10 µM; in the assay on HepG2, greater than 10 µM; with K562 it was greater than 10 µM; in the assay with A375, greater than 10 µM.

Take `COc1ccc(/C=C/C(=O)c2ccc(OC)c3c2OC(C)(C)C=C3)cc1NC(=O)Cc1cccc(C(F)(F)F)c1` [SKLBC-97, (E)-N-(2-methoxy-5-(3-(5-methoxy-2,2-dimethyl-2H-chromen-8-yl)-3-oxoprop-1-en-1-yl)phenyl)-2-(3-(trifluoromethyl)phenyl)acetamide]: the IC50 with LO2, in the assay on A549, with SMMC-7221, in the assay on HepG2, in the assay on K562 and in the assay with A375 was greater than 10 µM in each case.

Regarding `COc1ccc(/C=C/C(=O)c2ccc(OC)c3c2OC(C)(C)C=C3)cc1NC(N)=O` [SKLBC-98, (E)-1-(2-methoxy-5-(3-(5-methoxy-2,2-dimethyl-2H-chromen-8-yl)-3-oxoprop-1-en-1-yl)phenyl)urea], the IC50 was greater than 10 µM in the assay on LO2; 8.6 µM in the assay with A549; 9.2 µM with SMMC-7221; 3.6 µM in the assay on HepG2; 7.85 µM in the assay on K562; 2.4 µM with A375.

Regarding `COc1ccc(/C=C/C(=O)c2ccc(OC)c3c2OC(C)(C)C=C3)cc1NS(C)(=O)=O` [SKLBC-99, (E)-N-(2-methoxy-5-(3-(5-methoxy-2,2-dimethyl-2H-chromen-8-yl)-3-oxoprop-1-en-1-yl)phenyl)methanesulfonamide], the IC50 in the assay with LO2 was 9.8 µM; with A549 it was greater than 10 µM; in the assay on SMMC-7221, 5.6 µM; with HepG2 it was 10 µM; in the assay with K562, 8.85 µM; with A375 it was 9 µM.

As to `COc1ccc(/C=C/C(=O)c2ccc(OC)c3c2OC(C)(C)C=C3)cc1NS(=O)(=O)C1CC1` [SKLBC-100, (E)-N-(2-methoxy-5-(3-(5-methoxy-2,2-dimethyl-2H-chromen-8-yl)-3-oxoprop-1-en-1-yl)phenyl)cyclopropanesulfonamide], the IC50 in the assay on LO2 was greater than 20 µM; in the assay with A549 it was greater than 10 µM; in the assay on SMMC-7221 it was greater than 10 µM; in the assay with HepG2 it was greater than 10 µM; in the assay on K562, greater than 10 µM; in the assay with A375 it was greater than 10 µM.

For `COc1ccc(/C=C/C(=O)c2ccc(OC)c3c2OC(C)(C)C=C3)cc1NS(=O)(=O)c1ccc(C)cc1` [SKLBC-101, (E)-N-(2-methoxy-5-(3-(5-methoxy-2,2-dimethyl-2H-chromen-8-yl)-3-oxoprop-1-en-1-yl)phenyl)-4-methylbenzenesulfonamide], the IC50 in the assay with LO2 was greater than 10 µM; with A549 it was greater than 10 µM; in the assay with SMMC-7221, 6.8 µM; in the assay on HepG2, greater than 10 µM; in the assay on K562, greater than 10 µM; in the assay with A375, greater than 10 µM.

With `COc1ccc(/C=C/C(=O)c2ccc(OC)c3c2OC(C)(C)C=C3)cc1NS(=O)(=O)Cc1ccccc1` [SKLBC-102, (E)-N-(2-methoxy-5-(3-(5-methoxy-2,2-dimethyl-2H-chromen-8-yl)-3-oxoprop-1-en-1-yl)phenyl)-1-phenylmethanesulfonamide], the IC50 in the assay on LO2 was greater than 20 µM; in the assay on A549, greater than 10 µM; in the assay on SMMC-7221, greater than 10 µM; in the assay with HepG2 it was greater than 10 µM; in the assay with K562, greater than 10 µM; with A375, greater than 10 µM.
